The text below walks through data of PMC10756276, “Highly specific σ2R/TMEM97 ligand FEM-1689 alleviates neuropathic pain and inhibits the integrated stress response” (Proceedings of the National Academy of Sciences of the …, 2023).

The IC50 is the concentration that inhibits the measured activity by half. A word on the inhibition: it is the share of the control response that was lost under treatment. For orientation: Ki means a dissociation constant, usually derived from enzyme kinetics or from competition with a known ligand.

In one experiment the test system is p-eIF2α in HEK293T cells. Description: p-eIF2α ICC and spectrophotometry in HEK293T cells. In kind it is cell-based, human. The protocol:
The ICC protocol was based on a previously published protocol ([76]). […] Cells were blocked with 10% normal goat serum (NGS) in PBS-triton X (0.1%). […] Antibodies were incubated at 4 °C overnight. […] It was washed with PBS twice. […] Images were analyzed using Olympus CellSens. […] Number of cells analyzed are detailed in SI Appendix, Tables S3 and S4.
Human embryonic kidney (HEK) 293 T cells (ATCC # CRL-3216) were generously donated by the Campbell Lab (UT Dallas). Cells were grown at 37 °C with 5% CO2 in complete medium (10% FBS, 1% Pen-Strep in DMEM/F12 + GlutaMax (Gibco #10565-018) in T-75 flasks (Greiner Bio-One #658175). In a 96-well plate (ThermoFisher #165305), cells were plated at a density of 20,000 cells per well and grown to roughly 65% confluency before being treated with FEM-1689. For 2-h FEM-1689 treatment, HEK cells were plated at a density of 32,000 cells per well and treated at roughly 85% confluency. Three to five replicates were made per condition/dose (1/2 log steps ranging from 0.1 to 1,000 nM). ICC was performed to label p-eIF2α and DAPI. Immunofluorescence of HEK cells was quantified using the Synergy HTX Multimode Reader. For further details regarding the culturing of HEK cells, see SI Appendix. […]
Huma n e mbryon ic kidn ey (HEK) 293T ce lls (ATCC # C RL- 321 6) were ge nerously dona ted by th e Ca mpb ell Lab (UT Dallas). Cell stock s were previously fr ozen at 1 million cells/ml in 90% fetal bov ine s erum (F BS, ThermoFisher #SH300880340) and 10% DMSO. Cells were grown in complete medium (10% FBS, 1% Pen- Strep in DMEM/F12 + GlutaMax (Gibco #10565- 018) in T-75 flasks (Greiner Bio- One #658175). Cells were maintained at 37 °C with 5% CO2 and passaged twice before being plated onto either 96-well or 6-well plates for ICC/spectrophotometry and western blotting, respectively. Cells were counted using the TC20 automated cell counter (Bio- R ad #1450102) using a 1:1 dilution of trypan blue (Gibco #15250061).
In a 9 6-well p lat e (Therm oFisher #16 530 5), cells were p late d at a de nsity of 20,0 00 cells per w ell a nd gro wn to rou gh ly 65 % conf lu ency before be in g tre ate d w ith F EM- 16 89. For 2 h our F EM- 1689 trea tme nt, HEK ce lls were plated at a density of 32,000 cells per well and treated at roughly 85% confluency. […] Immunofluorescence of HEK cells was quantif ied using the Synergy HTX Multimode Reader. […] Wells were topped with 100 µL of 1X PBS prior to being read. DAPI and p -eIF2α reads were performed at bottom with a gain of 3 5 a nd 45, r espective ly. […]
fluorescence units (RFUs) of the negative controls were subtracted from each well. P-eIF2α fluorescence was normalized to DAPI in order to control for the number of cells present in the well and then to the fluoresce nce of th e veh icle t reatme nt as a p ercenta ge. […]

The target of the next experiment is 5HT2A (Homo sapiens, UniProt P28223). Description: PDSP competitive binding assay. As to conditions: 10 µM test article; read-out: Ki: primary assay inhibition of radioligand binding, 5HT2A.
Chain of 5HT2A (P28223 whole entry): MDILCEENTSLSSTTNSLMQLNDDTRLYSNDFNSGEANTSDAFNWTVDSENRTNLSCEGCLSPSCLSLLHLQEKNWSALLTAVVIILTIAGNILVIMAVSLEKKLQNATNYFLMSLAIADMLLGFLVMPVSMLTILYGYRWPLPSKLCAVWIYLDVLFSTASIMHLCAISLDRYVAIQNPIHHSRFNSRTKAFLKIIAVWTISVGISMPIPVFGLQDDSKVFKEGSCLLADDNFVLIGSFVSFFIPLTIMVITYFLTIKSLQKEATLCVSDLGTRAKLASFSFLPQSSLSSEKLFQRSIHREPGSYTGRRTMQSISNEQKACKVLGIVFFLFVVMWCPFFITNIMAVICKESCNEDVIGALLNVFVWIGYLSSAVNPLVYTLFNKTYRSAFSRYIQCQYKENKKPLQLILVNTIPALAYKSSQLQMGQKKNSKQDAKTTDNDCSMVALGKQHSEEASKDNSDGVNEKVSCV
A further experiment addresses M1 (Homo sapiens, UniProt P11229). Description: PDSP competitive binding assay. As to conditions: 10 µM test article; read-out: Ki: primary assay inhibition of radioligand binding, M1.
Another experiment deals with T1, M5 (Homo sapiens, UniProt P08912).
T1 construct: purchased NIMH Psychoactive Drug Screening Program (PDSP), University of North Carolina at Chapel Hill
T1 sequence (P08912 whole entry): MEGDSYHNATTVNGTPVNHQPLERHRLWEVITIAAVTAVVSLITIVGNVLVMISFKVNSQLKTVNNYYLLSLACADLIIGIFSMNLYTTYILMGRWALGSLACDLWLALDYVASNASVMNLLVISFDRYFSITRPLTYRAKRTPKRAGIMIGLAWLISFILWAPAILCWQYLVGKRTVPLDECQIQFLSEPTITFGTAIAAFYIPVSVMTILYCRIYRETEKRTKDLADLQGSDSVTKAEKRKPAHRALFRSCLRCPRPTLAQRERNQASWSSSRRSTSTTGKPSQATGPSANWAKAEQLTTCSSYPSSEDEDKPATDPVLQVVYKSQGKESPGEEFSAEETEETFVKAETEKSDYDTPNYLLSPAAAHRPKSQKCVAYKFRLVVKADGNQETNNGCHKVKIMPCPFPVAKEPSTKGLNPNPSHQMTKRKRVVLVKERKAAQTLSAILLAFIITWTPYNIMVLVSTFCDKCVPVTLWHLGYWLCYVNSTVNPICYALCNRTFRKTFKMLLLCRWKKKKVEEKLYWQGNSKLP
Description: PDSP competitive binding assay. As to conditions: 10 µM test article; read-out: Ki: primary assay inhibition of radioligand binding, M5.

A further experiment concerns the target NET (Homo sapiens, UniProt P23975). The experiment in a line: PDSP competitive binding assay.
The subject of experiment [1] is SNI model of neuropathic pain, wild-type and TMEM97KO mice. The experiment in a line: SNI model of neuropathic pain, von Frey mechanical hypersensitivity. As to conditions: for mechanical hypersensitivity after SNI (von Frey): male and female. In kind it is in vivo, mouse.
The next experiment has as its target T2, M3 (Homo sapiens, UniProt P20309).
T2 construct: purchased NIMH Psychoactive Drug Screening Program (PDSP), University of North Carolina at Chapel Hill
Description: PDSP competitive binding assay. The settings on record: 10 µM test article; read-out: Ki: primary assay inhibition of radioligand binding, M3.

Another experiment addresses 5HT2C (Homo sapiens, UniProt P28335). Description: PDSP competitive binding assay. As to conditions: 10 µM test article; read-out: Ki: primary assay inhibition of radioligand binding, 5HT2C.
The target in a further experiment is T3, 5HT7 (Homo sapiens, UniProt P34969).
T3 construct: purchased NIMH Psychoactive Drug Screening Program (PDSP), University of North Carolina at Chapel Hill
T3 sequence (P34969 whole entry): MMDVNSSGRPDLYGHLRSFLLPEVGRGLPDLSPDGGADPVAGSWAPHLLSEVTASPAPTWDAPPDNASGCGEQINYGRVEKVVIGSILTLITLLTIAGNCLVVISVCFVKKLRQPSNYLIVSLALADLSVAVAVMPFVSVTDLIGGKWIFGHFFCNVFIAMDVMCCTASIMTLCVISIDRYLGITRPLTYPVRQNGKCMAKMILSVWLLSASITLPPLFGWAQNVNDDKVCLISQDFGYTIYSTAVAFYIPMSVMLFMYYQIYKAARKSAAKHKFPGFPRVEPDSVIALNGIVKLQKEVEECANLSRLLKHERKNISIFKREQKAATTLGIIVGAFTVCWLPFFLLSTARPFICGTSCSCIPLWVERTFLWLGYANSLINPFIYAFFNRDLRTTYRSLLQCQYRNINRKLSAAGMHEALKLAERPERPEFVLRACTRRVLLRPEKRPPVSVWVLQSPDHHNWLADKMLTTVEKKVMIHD
Description: PDSP competitive binding assay. As to conditions: 10 µM test article; read-out: Ki: primary assay inhibition of radioligand binding, 5HT7.

For another experiment, the target named is T4, Alpha1b (Homo sapiens, UniProt P35368).
T4 construct: purchased NIMH Psychoactive Drug Screening Program (PDSP), University of North Carolina at Chapel Hill
T4 sequence (P35368 whole entry): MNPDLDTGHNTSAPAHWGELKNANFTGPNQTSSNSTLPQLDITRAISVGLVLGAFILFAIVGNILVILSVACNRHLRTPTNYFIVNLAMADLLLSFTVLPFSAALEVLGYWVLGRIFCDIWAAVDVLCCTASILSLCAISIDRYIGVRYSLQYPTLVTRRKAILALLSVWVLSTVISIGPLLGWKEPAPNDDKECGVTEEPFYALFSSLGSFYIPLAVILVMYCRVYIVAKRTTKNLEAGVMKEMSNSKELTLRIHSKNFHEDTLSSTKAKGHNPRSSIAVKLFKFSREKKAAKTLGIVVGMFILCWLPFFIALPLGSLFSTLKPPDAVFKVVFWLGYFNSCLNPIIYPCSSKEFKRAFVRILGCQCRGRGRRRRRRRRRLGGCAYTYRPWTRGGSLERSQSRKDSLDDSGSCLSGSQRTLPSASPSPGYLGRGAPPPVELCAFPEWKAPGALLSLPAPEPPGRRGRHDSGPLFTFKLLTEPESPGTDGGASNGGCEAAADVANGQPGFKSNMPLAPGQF
Description: PDSP competitive binding assay. As to conditions: 10 µM test article; read-out: Ki: primary assay inhibition of radioligand binding, Alpha1b.

“Also recorded” adds a separate entry of the source. Where two headings read alike, the source gives them in different places. A value given as a limit tells only on which side of the number the result lay.

Chain of NET (P23975 whole entry): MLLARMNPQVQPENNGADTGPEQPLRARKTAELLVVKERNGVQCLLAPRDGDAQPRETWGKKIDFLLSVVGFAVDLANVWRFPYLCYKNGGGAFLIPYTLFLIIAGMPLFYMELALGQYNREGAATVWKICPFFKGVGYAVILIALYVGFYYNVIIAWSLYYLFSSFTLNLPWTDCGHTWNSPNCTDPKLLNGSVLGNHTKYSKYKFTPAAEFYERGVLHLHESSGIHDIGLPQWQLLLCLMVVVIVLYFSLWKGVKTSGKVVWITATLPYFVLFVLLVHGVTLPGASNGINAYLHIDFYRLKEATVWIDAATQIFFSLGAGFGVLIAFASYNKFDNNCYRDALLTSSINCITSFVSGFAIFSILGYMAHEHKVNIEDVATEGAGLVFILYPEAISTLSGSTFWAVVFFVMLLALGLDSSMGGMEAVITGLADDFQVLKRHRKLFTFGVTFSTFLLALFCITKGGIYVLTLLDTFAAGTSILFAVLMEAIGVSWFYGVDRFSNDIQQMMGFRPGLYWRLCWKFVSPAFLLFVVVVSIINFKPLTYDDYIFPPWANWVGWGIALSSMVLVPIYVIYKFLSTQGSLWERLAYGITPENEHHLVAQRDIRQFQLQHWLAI
Chain of M1 (P11229 whole entry): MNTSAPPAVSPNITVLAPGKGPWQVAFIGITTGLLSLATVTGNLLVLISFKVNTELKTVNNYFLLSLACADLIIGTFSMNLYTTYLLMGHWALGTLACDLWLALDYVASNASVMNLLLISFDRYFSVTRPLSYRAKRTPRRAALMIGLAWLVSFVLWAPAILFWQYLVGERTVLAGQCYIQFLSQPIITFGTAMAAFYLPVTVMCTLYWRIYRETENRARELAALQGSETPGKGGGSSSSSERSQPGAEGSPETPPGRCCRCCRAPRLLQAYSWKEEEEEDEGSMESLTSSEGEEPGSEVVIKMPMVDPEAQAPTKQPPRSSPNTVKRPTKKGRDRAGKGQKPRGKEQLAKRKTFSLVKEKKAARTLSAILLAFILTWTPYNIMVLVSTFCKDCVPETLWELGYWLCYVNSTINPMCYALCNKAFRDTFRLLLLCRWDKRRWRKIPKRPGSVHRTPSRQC
Chain of 5HT2C (P28335 33-458): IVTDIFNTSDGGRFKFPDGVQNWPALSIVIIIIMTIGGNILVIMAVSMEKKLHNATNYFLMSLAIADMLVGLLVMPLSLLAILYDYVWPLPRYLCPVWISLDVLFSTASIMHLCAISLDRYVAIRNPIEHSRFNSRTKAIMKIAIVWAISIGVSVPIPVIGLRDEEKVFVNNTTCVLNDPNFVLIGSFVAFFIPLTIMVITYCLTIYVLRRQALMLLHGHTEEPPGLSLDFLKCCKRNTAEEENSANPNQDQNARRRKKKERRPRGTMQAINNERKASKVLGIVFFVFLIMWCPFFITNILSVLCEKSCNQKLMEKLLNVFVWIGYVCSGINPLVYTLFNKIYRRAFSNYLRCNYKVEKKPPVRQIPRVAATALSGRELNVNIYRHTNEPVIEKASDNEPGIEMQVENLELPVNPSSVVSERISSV
T2 sequence (P20309 whole entry): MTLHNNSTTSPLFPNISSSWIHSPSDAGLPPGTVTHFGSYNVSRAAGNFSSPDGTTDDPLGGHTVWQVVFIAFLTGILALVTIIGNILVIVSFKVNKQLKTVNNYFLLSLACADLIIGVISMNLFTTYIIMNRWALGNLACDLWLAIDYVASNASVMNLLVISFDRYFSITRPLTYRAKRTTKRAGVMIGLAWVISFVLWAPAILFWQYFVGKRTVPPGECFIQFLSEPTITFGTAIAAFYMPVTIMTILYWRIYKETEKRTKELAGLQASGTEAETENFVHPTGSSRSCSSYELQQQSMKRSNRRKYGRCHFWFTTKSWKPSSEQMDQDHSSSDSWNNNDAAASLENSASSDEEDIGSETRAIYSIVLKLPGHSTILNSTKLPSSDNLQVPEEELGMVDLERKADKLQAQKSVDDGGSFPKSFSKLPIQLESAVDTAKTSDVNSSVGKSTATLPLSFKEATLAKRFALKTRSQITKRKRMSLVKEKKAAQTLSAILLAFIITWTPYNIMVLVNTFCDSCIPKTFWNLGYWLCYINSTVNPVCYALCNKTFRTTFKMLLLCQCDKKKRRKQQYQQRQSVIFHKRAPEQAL

As for `OCCCN1CC[C@@H]2C[C@H]1c1cc(-c3ccc(C(F)(F)F)cc3)ccc12` [FEM-1689], the IC50 in the experiment on p-eIF2α in HEK293T cells (2 h treatment) amounted to 5.89 nM; in the experiment with p-eIF2α in HEK293T cells (16 h treatment), 0.74 nM; in the experiment on p-eIF2α in HEK293T cells (Homo sapiens, HEK-293T, 2 h, 2 h treatment), 5.9 nM; in the experiment on p-eIF2α in HEK293T cells (Homo sapiens, HEK-293T, 16 h, 16 h treatment) it was 0.7 nM. Besides, the inhibition at 10 µM at 5HT2A, at M1, at M5, at M3, at 5HT2C and at 5HT7 was less than 50% in each case. The inhibition at 10 µM at Alpha1b was less than 50%. In addition, the Ki at NET (Ki, NET, Run 1) was determined as 668 nM; on NET (Ki, NET, Run 2) it was 221 nM; at NET (Ki, NET, Run 3) it was 209 nM; at NET (Ki, NET, Run 4) it was 519 nM; on NET (read-out: NET Ki, average of four Ki determinations), 405 ± 227 nM. Further, the “selectivity for σ2R/TMEM97 vs NET” value at NET (ratio of Ki) is recorded as 24 fold. Moreover, the “mechanical hypersensitivity after SNI (von Frey)” value was “little or no change for mechanical sensitivity in either group; also recorded: not sufficient to reduce mechanical hypersensitivity” in [1] (single 10 mg/kg IV, 30 d after SNI, wild-type and TMEM97KO, 7 d, 10 mg/kg); “failed to reduce mechanical hypersensitivity” in experiment [1] (single 20 mg/kg IV, TMEM97KO mice, 20 mg/kg); “effectively reversed mechanical hypersensitivity; also recorded: maximal antinociceptive effect” in experiment [1] (single 20 mg/kg IV, wild-type mice, 20 mg/kg). Further, in experiment [1] (single 20 mg/kg IV, wild-type mice), the “duration of reversal of mechanical hypersensitivity” value is “roughly 4 d”.
